Assay results reported in PMC3038857, “Using Nuclear Receptor Activity to Stratify Hepatocarcinogens” (PLoS ONE, 2011).
Read-outs that look alike come from different tables or passages of the source.

How the values were obtained:
CYP2B6 = assay: CLZD_CYP2B6: Change in expression of CYP2B6 (primary human hepatocytes); assay type: cell-based; settings: 24 hr
Procedure: (§1) This is a collection of multiplexed gene expression assays focused on Phase I and II xenobiotic metabolizing enzymes and transporters. Human primary cell cultures were treated with chemicals at 5 concentrations (0.004-40 [drawing 42] M) for 6, 24 and 48 hr. Concentration- and time-response profiles of chemicals were measured by the expression of key nuclear receptor target genes, activities of CYP1A enzymes (EROD), and cell morphology. Fourteen gene targets were monitored by quantitative nuclease protection assay including: six representative cytochrome P-450 genes, four hepatic transporters, three Phase II conjugating enzymes, and one endogenous metabolism gene involved in cholesterol synthesis. The target genes associated with nuclear receptor pathways are as follows: [drawing 43] and [drawing 44] with [drawing 45]; [drawing 46] , [drawing 47] , [drawing 48] , [drawing 49] , [drawing 50] and [drawing 51] with [drawing 52]; [drawing 53] , [drawing 54] , [drawing 55] and [drawing 56] with [drawing 57]; [drawing 58] with [drawing 59]; and [drawing 60] with [drawing 61] . Assays were run in primary human hepatocyte cultures by CellzDirect Invitrogen Inc. (Durham, NC), in collaboration with EPA.
(§2) Multiplexed Gene Expression in Human Primary Hepatocytes: This is a collection of multiplexed gene expression assays focused on Phase I and II metabolic enzymes and transporters. […] Fourteen gene targets were monitored by quantitative nuclease protection assay: six representative cytochrome P450 genes, four hepatic transporters, three Phase II conjugating enzymes, and one endogenous metabolism gene involved in cholesterol synthesis. Cells were exposed at 5 concentrations (0.004-40 µM) for 6, 24 or 48 hr. Gene targets are sentinels for five nuclear receptor signaling pathways: AhR, CAR, PXR, FXR, and PPARα. All gene are associated with nuclear receptor pathways: CYP1A1 and CYP1A2 with AHR; ABCB1, ABCG2, CYP2B6, CYP2C9, CYP2C19 and UGT1A1 with CAR; CYP3A4, GSTA2, SLCO1B1 and SULT2A1 with PXR; HMGCS2 with PPARA; and ABCB11 with FXR. […] Detailed description of the methods, data and analysis methods for this dataset will be presented in a separate publication.

CYP3A4 = assay: CLZD_CYP3A4: Change in expression of CYP3A4 (primary human hepatocytes); assay type: cell-based; settings: 24 hr
Procedure: as §1, §2

Mouse Liver [1] = settings: ref ToxRefDB, cited from earlier work
Mouse Liver [2] = settings: ref ToxRefDB, cited from earlier work; remark: listed apart in the source
Rat Liver [3] = settings: ref ToxRefDB, cited from earlier work
Rat Liver [4] = settings: ref ToxRefDB, cited from earlier work; remark: listed apart in the source
Rat Liver [5] = settings: ref ToxRefDB, cited from earlier work; remark: listed apart in the source
PXR (NR1I2) [6] = target: T1, PXR (NR1I2) (Homo sapiens, UniProt O75469); assay: ATG_PXRE_CIS: Factorial reporter gene assay (HepG2); assay type: cell-based; design: endogenous in cells; host or cells: HepG2
T1 sequence (O75469 1-434): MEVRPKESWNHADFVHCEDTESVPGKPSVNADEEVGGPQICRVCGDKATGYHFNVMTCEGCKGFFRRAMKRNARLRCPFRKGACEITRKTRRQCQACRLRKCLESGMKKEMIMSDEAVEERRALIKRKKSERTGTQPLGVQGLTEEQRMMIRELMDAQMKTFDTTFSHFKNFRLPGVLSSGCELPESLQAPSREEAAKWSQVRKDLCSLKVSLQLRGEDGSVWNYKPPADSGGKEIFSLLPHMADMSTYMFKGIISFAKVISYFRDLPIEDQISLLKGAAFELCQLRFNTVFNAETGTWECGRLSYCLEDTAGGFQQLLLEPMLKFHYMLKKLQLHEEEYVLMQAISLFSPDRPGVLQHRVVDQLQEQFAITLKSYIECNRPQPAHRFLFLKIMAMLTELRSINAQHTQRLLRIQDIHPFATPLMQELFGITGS
Procedure: (§3) A multiple reporter transcription unit (MRTU) library consisting of 48 transcription factor binding sites was transfected into the HepG2 human liver hepatoma cell line. In addition to the cis-acting reporter genes (CIS), a modification of the approach was used to generate a trans-system (TRANS) with a mammalian one-hybrid assay consisting of an additional 25 MRTU library reporting the activity of nuclear receptor super-family members. […] These assays were performed by Attagene Inc. (Morrisville NC) under contract to EPA.
(§4) In addition to the cis-acting reporter genes (CIS), a modification of the approach was used to generate a trans-system (TRANS) with a mammalian one-hybrid assay consisting of an additional 25 MRTU library reporting the activity of nuclear receptor super-family members. […] Chemicals were then tested in the CIS and TRANS assays at seven concentrations starting at the MTC and followed by three-fold serial dilutions. These assays were performed by Attagene Inc. (Morrisville NC) under contract to EPA. Detailed description of the methods, data and analysis methods for this dataset will be presented in a separate publication.

[7] = target: T2, PPARG (peroxisome proliferator-activated receptor gamma) (Homo sapiens, UniProt P37231); assay: ATG_PPARg_TRANS: Factorial reporter gene assay (HepG2); assay type: cell-based
T2 construct: expressed in transfected cells; host or cells: HepG2
T2 sequence (P37231 1-505): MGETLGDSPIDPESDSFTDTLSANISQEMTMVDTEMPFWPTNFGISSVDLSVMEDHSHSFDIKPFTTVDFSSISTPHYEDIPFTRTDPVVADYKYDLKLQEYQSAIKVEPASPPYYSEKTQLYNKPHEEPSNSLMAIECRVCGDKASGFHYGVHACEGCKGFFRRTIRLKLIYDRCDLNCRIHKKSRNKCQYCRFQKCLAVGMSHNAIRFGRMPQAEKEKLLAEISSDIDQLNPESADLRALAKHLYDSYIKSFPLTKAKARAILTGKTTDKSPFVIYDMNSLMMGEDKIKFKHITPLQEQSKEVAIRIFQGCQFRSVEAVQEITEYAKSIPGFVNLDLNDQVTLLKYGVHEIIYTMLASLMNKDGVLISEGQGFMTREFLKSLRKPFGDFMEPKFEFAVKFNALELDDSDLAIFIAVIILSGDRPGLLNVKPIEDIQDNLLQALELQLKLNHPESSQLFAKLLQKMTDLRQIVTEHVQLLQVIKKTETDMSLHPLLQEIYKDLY
Procedure: as §3, §4

PXR (NR1I2) [8] = target: T1, PXR (NR1I2); assay: ATG_PXR_TRANS: Factorial reporter gene assay (HepG2); assay type: cell-based; design: endogenous in cells; host or cells: HepG2; settings: HepG2 reporter
Procedure: as §3, §4

CYP1A1 = assay: CLZD_CYP1A1: Change in expression of CYP1A1 (primary human hepatocytes); assay type: cell-based; settings: 24 hr
Procedure: as §1, §2

[9] = mouse chronic study, liver, coded 6 / Inf, code not explained in table
[10] = rat chronic study, liver, coded 6 / 0, code not explained in table

CCC/C(=N\OCC)C1=C(O)CC(CC(C)SCC)CC1=O (centres unmarked) [r283]
CLZD_CYP2B6_24 (CYP2B6): 5.082
CLZD_CYP3A4_24 (CYP3A4): 4.556
CHR_Mouse_Liver_1_AnyLesion (Mouse Liver [1]; chronic study, mouse liver): 6
CHR_Mouse_Liver_2_PreneoplasticLesion (Mouse Liver [2]; chronic study, mouse liver): 6
CHR_Rat_Liver_1_AnyLesion (Rat Liver [3]; chronic study, rat liver): 6
CHR_Rat_Liver_2_PreneoplasticLesion (Rat Liver [4]; chronic study, rat liver): 6
CHR_Rat_Liver_3_NeoplasticLesion (Rat Liver [5]; chronic study, rat liver): 0
ATG_PXRE_CIS (PXR (NR1I2) [6]; HepG2 reporter): 4.62

Cc1nn(-c2cc(NS(C)(=O)=O)c(Cl)cc2Cl)c(=O)n1C(F)F [r287]
ATG_PPARg_TRANS ([7]; HepG2 reporter): 4.444
CLZD_CYP2B6_24 (CYP2B6): 5.329
CLZD_CYP3A4_24 (CYP3A4): 5.471
CHR_Mouse_Liver_1_AnyLesion (Mouse Liver [1]; chronic study, mouse liver): 6
CHR_Rat_Liver_1_AnyLesion (Rat Liver [3]; chronic study, rat liver): 0
CHR_Rat_Liver_2_PreneoplasticLesion (Rat Liver [4]; chronic study, rat liver): 0
CHR_Rat_Liver_3_NeoplasticLesion (Rat Liver [5]; chronic study, rat liver): 0
ATG_PXR_TRANS (PXR (NR1I2) [8]): 4.469
ATG_PXRE_CIS (PXR (NR1I2) [6]; HepG2 reporter): 4.409

CSc1nnc(C(C)(C)C)c(=O)n1N [row 209]
CLZD_CYP2B6_24 (CYP2B6): 5.115
CHR_Rat_Liver_1_AnyLesion (Rat Liver [3]; chronic rat study, liver): 0
CHR_Rat_Liver_2_PreneoplasticLesion (Rat Liver [4]; chronic rat study, liver): 0
CHR_Rat_Liver_3_NeoplasticLesion (Rat Liver [5]; chronic rat study, liver): 0

O=C(Nc1ccc([N+](=O)[O-])cc1Cl)c1cc(Cl)ccc1O [row 220]
ATG_PPARg_TRANS ([7]; HepG2): 6.252
ATG_PXRE_CIS (PXR (NR1I2) [6]; HepG2): 6.367

CCCOC/C(=N\c1ccc(Cl)cc1C(F)(F)F)n1ccnc1 [chemical 315]
CHR_Mouse_Liver_1_AnyLesion (Mouse Liver [1]; [9]): 6
CHR_Mouse_Liver_2_PreneoplasticLesion (Mouse Liver [2]; [9]): 6
CHR_Rat_Liver_1_AnyLesion (Rat Liver [3]; [10]): 6
CHR_Rat_Liver_2_PreneoplasticLesion (Rat Liver [4]; [10]): 6
CHR_Rat_Liver_3_NeoplasticLesion (Rat Liver [5]; [10]): 0

O=C(Nc1ccccc1)Nc1cnns1 [chemical 298]
CHR_Mouse_Liver_1_AnyLesion (Mouse Liver [1]; [9]): 6
CHR_Mouse_Liver_2_PreneoplasticLesion (Mouse Liver [2]; [9]): 6
CHR_Rat_Liver_1_AnyLesion (Rat Liver [3]; [10]): 0
CHR_Rat_Liver_2_PreneoplasticLesion (Rat Liver [4]; [10]): 0
CHR_Rat_Liver_3_NeoplasticLesion (Rat Liver [5]; [10]): 0

COc1nc(NC(C)C)nc(NC(C)C)n1 [r255]
CLZD_CYP1A1_24 (CYP1A1): 5.078
CLZD_CYP2B6_24 (CYP2B6): 4.907
CLZD_CYP3A4_24 (CYP3A4): 5.515
CHR_Mouse_Liver_1_AnyLesion (Mouse Liver [1]; mouse, chronic study): 6
CHR_Rat_Liver_1_AnyLesion (Rat Liver [3]; rat, chronic study): 0
CHR_Rat_Liver_2_PreneoplasticLesion (Rat Liver [4]; rat, chronic study): 0
CHR_Rat_Liver_3_NeoplasticLesion (Rat Liver [5]; rat, chronic study): 0
ATG_PXRE_CIS (PXR (NR1I2) [6]; HepG2): 4.553

COc1cnc(OC)n2nc(NS(=O)(=O)c3c(OCC(F)F)cccc3C(F)(F)F)nc12 [r239]
CLZD_CYP2B6_24 (CYP2B6): 4.844
CLZD_CYP3A4_24 (CYP3A4): 4.931
CHR_Rat_Liver_1_AnyLesion (Rat Liver [3]; rat, chronic study): 6
CHR_Rat_Liver_2_PreneoplasticLesion (Rat Liver [4]; rat, chronic study): 0
CHR_Rat_Liver_3_NeoplasticLesion (Rat Liver [5]; rat, chronic study): 0
ATG_PXRE_CIS (PXR (NR1I2) [6]; HepG2): 4.585
